The source made the active and inactive calls. The rule behind the calls is not given here.
The compounds below were run against methionyl-tRNA synthetase (Trypanosoma brucei brucei) (assay: T. brucei MetRS inhibitors, late-stage follow-up, biochemical, luminescence, dose response, round 1 (AID 743153)). Conditions: recombinant T. brucei MetRS, luminescence (ATP depletion).

IC50	Structure (SMILES)
> 119 µM (inactive)	Cc1cccc2[nH]c(CCN(C)C(=O)c3cccc(C4CCNC4)c3)nc12 (stereo unspecified)
> 39.5 µM (inactive)	CC(=O)N(CCc1ccccc1)C1CC(=O)N(c2ccc(Br)cc2)C1=O (stereo unspecified)
inactive	O=C(Cn1cc(C(=O)C2CC2)c2ccccc21)Nc1cccc(C(F)(F)F)c1
> 39.5 µM (inactive)	Cc1cccc(NC(=O)C2CC(=O)n3c(nc4ccccc43)N2)c1 (stereo unspecified)
> 119 µM (inactive)	CC1Cc2ccccc2N1C(=O)Cn1cc(C(=O)C(=O)N2CCOCC2)c2ccccc21 (stereo unspecified)
1.39 µM	O=C(Cn1cc(C(=O)c2ccco2)c2ccccc21)Nc1cccc(C(F)(F)F)c1
> 39.5 µM (inactive)	CCC(=O)c1cn(CC(=O)Nc2cccc(C(F)(F)F)c2)c2ccccc12
> 119 µM (inactive)	COc1ccc(CCN(C(=O)c2cccc(F)c2)C2CC(=O)N(c3ccc(Br)cc3)C2=O)cc1 (stereo unspecified)
1.84 µM	CCN(CC)C(=O)C(=O)c1cn(CC(=O)Nc2cccc(OC)c2)c2ccccc12
> 119 µM (inactive)	O=C(NCCc1nc2ccccc2[nH]1)c1c(F)cccc1F
> 119 µM (inactive)	CCN(C(=O)Cn1cc(C(=O)C(=O)N2CCOCC2)c2ccccc21)c1ccccc1
> 119 µM (inactive)	CCc1ccc2c(c1)c1nnc(SCC(=O)Nc3ccc4c(c3)OCO4)nc1n2C
> 119 µM (inactive)	COc1ccc(NC(=O)CSc2nnc3c4cc(C)ccc4n(C)c3n2)cc1
inactive	COc1cccc(NC(=O)C2CC(=O)n3c(nc4ccccc43)N2)c1 (stereo unspecified)
> 39.5 µM (inactive)	Cc1cccc(C(=O)NCCc2nc3ccccc3n2CCOc2ccccc2)c1
> 39.5 µM (inactive)	O=C(Cn1cc(C(=O)COc2ccccc2)c2ccccc21)Nc1cccc(C(F)(F)F)c1
2.37 µM	Cc1ccc(C(=O)NCCc2nc3ccccc3[nH]2)cc1[N+](=O)[O-]
6.8 µM	O=C(Cn1cc(C(=O)c2ccccc2)c2ccccc21)Nc1cccc(C(F)(F)F)c1
> 119 µM (inactive)	COc1ccccc1NC(=O)Cn1cc(C(=O)C(=O)N2CCOCC2)c2ccccc21
inactive	O=C(CSC1CC(=O)N(c2cccc(Cl)c2)C1=O)Nc1ccc(Br)cc1 (stereo unspecified)
> 39.5 µM (inactive)	CCc1ccc2[nH]c3nc(SCC(=O)NCc4cccc(OC)c4)nnc3c2c1
> 39.5 µM (inactive)	CCCCn1c(CCNC(=O)c2ccc(F)cc2)nc2ccccc21
0.321 µM	COc1ccc(CCN(C(=S)Nc2ccccc2)C2CC(=O)N(c3ccc(Cl)cc3)C2=O)cc1 (stereo unspecified)
> 119 µM (inactive)	O=C(Cn1cc(C(=O)C(=O)N2CCOCC2)c2ccccc21)NCC1CCCO1 (stereo unspecified)
inactive	COc1ccccc1NC(=O)CSc1nnc2c(n1)[nH]c1ccc(C)cc12
> 119 µM (inactive)	COc1ccc(NC(=O)C2CC(=O)n3c(nc4ccccc43)N2)cc1 (stereo unspecified)

IC50	Structure (SMILES)
> 13.2 µM (inactive)	O=C(C(=O)N1CCOCC1)c1cn(CC(=O)N2CCCc3ccccc32)c2ccccc12
> 39.5 µM (inactive)	Cc1cccc2[nH]c(C3CCCN(C(=O)c4cccc5cccnc45)C3)nc12 (stereo unspecified)
0.609 µM	O=C(NCCc1nc2ccccc2[nH]1)c1ccc(Cl)c(Cl)c1
0.626 µM	O=C(CSc1nnc2c(n1)[nH]c1ccc(Br)cc12)NCc1ccccc1
> 119 µM (inactive)	CCN(CC)C(=O)C(=O)c1cn(CC(=O)Nc2ccccc2OC)c2ccccc12
> 13.2 µM (inactive)	Cc1ccc(C(=O)NCCc2nc3ccccc3[nH]2)cc1C
> 119 µM (inactive)	O=C1CC(NCCc2ccccc2)C(=O)N1c1ccc(Br)cc1 (stereo unspecified)
> 119 µM (inactive)	CC(C)c1nc2ccc(C(=O)N(C)CCc3nc4ccc(F)cc4[nH]3)cc2o1
> 39.5 µM (inactive)	Cn1c(CCNC(=O)c2ccc(Cl)cc2)nc2ccccc21
> 39.5 µM (inactive)	COCCc1nc2ccc(C(=O)NCCc3nc4ccc(OC)cc4[nH]3)cc2o1
6.2 µM	CC(=O)c1cn(CC(=O)Nc2cccc(C(F)(F)F)c2)c2ccccc12
> 119 µM (inactive)	O=C(Cn1cc(C(=O)C(=O)N2CCCC2)c2ccccc21)Nc1ccccc1
4.86 µM	O=C(NCCc1nc2ccccc2[nH]1)c1ccc(Cl)cc1
> 119 µM (inactive)	CCN(CCc1nc2ccc(C)cc2[nH]1)C(=O)c1ccc2ncccc2c1
> 39.5 µM (inactive)	CC(=O)N(CCc1ccccc1)C1CC(=O)N(c2ccc(Cl)cc2)C1=O (stereo unspecified)
0.905 µM	O=C(NCCc1nc2ccccc2[nH]1)c1ccc(Cl)cc1Cl
> 119 µM (inactive)	O=C(Cn1cc(C(=O)C(=O)N2CCOCC2)c2ccccc21)NCc1ccccc1
> 119 µM (inactive)	CCN(CC)C(=O)C(=O)c1cn(CC(=O)N2CCCc3ccccc32)c2ccccc12
0.192 µM	CNC(=S)N(CCc1ccccc1)C1CC(=O)N(c2ccc(Br)cc2)C1=O (stereo unspecified)
> 39.5 µM (inactive)	Cc1cc2cc(C(=O)N3CCCC(c4nc5ccccc5[nH]4)C3)ccc2o1 (stereo unspecified)
1.18 µM	O=C(Nc1ccc(F)c(Cl)c1)C1CC(=O)n2c(nc3ccccc32)N1 (stereo unspecified)
> 39.5 µM (inactive)	CCN(CC)C(=O)C(=O)c1cn(CC(=O)N(CC)c2ccccc2)c2ccccc12
0.11 µM	CCN(CC)C(=O)C(=O)c1cn(CC(=O)Nc2cccc(C(F)(F)F)c2)c2ccccc12
> 119 µM (inactive)	Cc1ccc2[nH]c3nc(SCC(=O)Nc4ccc(C(F)(F)F)cc4)nnc3c2c1
inactive	Cc1ccc(CNC(=O)CSc2nnc3c(n2)[nH]c2ccc(C)cc23)cc1

— PubChem BioAssay AID743153 (The Scripps Research Institute Molecular Screening Center, 2013)
